Measurements published in patent publication US6914045B2, “Glycopeptide antibiotics” (Wyeth Holdings Corporation, priority 2001, dated 2005).
In brackets after ≈: the same amount, converted by molar mass.

Tests used:
Assay in all cases: in vitro antibacterial evaluation, MIC by broth dilution
Type in all cases: cell-based
[1] = system: Escherichia coli; settings: 18 hours at 35° C.
[2] = system: Staphylococcus sp.; settings: broth dilution, 18 hours at 35° C.
How it was run: (§1)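 Following National Committee for Clinical Laboratory Standards recommendations (M7-A2), susceptibility was measured by dilution in Muller-Hinton II […]. Bacteria were seeded at 5×10^5 CFU/mL against compound concentrations from 64 down to 0.06 μg/mL.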

[3] = system: Streptococcus sp.; settings: broth dilution, 18 hours at 35° C.
How it was run: as §1

[4] = system: Enterococcus sp.; settings: broth dilution, 18 hours at 35° C.
How it was run: as §1

CCOc1cc(COCC2OC(OC3C(CO)OC(Oc4ccc(CC5NC(=O)C(C(C)c6ccccc6)NC(=O)CNC(=O)C(CO)NC(=O)C(C(O)C6CNC(=N)N6C6OC(CO)C(O)C(O)C6O)NC(=O)C(C(O)C6CNC(=N)N6)NC5=O)cc4)C(O)C3O)C(O)C(O)C2O)ccc1OC (stereo not shown) [Example 238]
MIC Escherichia coli (ATCC 25922) [1]: >64 µg/mL
MIC Escherichia coli (GC 4559) [1]: >64 µg/mL
MIC Escherichia coli (GC 4560) [1]: 2 µg/mL (≈ 1.37 µM)
MIC Coagulase Negative Staphylococcus (GC 4547) [2]: 2 µg/mL (≈ 1.37 µM)
MIC Coagulase Negative Staphylococcus (GC 4548) [2]: 2 µg/mL (≈ 1.37 µM)
MIC Coagulase Negative Staphylococcus (GC 4549) [2]: 2 µg/mL (≈ 1.37 µM)
MIC Coagulase Negative Staphylococcus (GC 4551) [2]: 4 µg/mL (≈ 2.74 µM)
MIC Coagulase Negative Staphylococcus (GC 6257) [2]: 1 µg/mL (≈ 0.685 µM)
MIC Staphylococcus aureus (ATCC 29213) [2]: 4 µg/mL (≈ 2.74 µM)
MIC Staphylococcus aureus (GC 1131) [2]: 4 µg/mL (≈ 2.74 µM)
MIC Staphylococcus aureus (GC 3051) [2]: 4 µg/mL (≈ 2.74 µM)
MIC Staphylococcus aureus (GC 3053) [2]: 8 µg/mL (≈ 5.48 µM)
MIC Staphylococcus aureus (GC 4541) [2]: 4 µg/mL (≈ 2.74 µM)
MIC Staphylococcus aureus (GC 4542) [2]: 4 µg/mL (≈ 2.74 µM)
MIC Staphylococcus aureus (GC 4544) [2]: 8 µg/mL (≈ 5.48 µM)
MIC Staphylococcus aureus (GC 4545) [2]: 2 µg/mL (≈ 1.37 µM)
MIC Staphylococcus aureus-SMITH (GC 4543) [2]: 4 µg/mL (≈ 2.74 µM)
MIC Staphylococcus haemolyticus (GC 4546) [2]: 2 µg/mL (≈ 1.37 µM)
MIC Staphylococcus aureus (ATCC 29213) ([2]; strain ATCC 29213): 4 µg/mL (≈ 2.74 µM)
MIC Staphylococcus aureus (GC 1131) ([2]; strain GC 1131): 4 µg/mL (≈ 2.74 µM)
MIC Staphylococcus aureus (GC 3051) ([2]; strain GC 3051): 4 µg/mL (≈ 2.74 µM)
MIC Staphylococcus aureus (GC 3053) ([2]; strain GC 3053): 8 µg/mL (≈ 5.48 µM)
MIC Staphylococcus aureus (GC 4541) ([2]; strain GC 4541): 4 µg/mL (≈ 2.74 µM)
MIC Staphylococcus aureus (GC 4542) ([2]; strain GC 4542): 4 µg/mL (≈ 2.74 µM)
MIC Staphylococcus aureus-SMITH (GC 4543) ([2]; strain GC 4543): 4 µg/mL (≈ 2.74 µM)
MIC Staphylococcus aureus (GC 4544) ([2]; strain GC 4544): 8 µg/mL (≈ 5.48 µM)
MIC Staphylococcus aureus (GC 4545) ([2]; strain GC 4545): 2 µg/mL (≈ 1.37 µM)
MIC Staphylococcus haemolyticus (GC 4546) ([2]; strain GC 4546): 2 µg/mL (≈ 1.37 µM)
MIC Coagulase Negative Staphylococcus (GC 4547) ([2]; strain GC 4547): 2 µg/mL (≈ 1.37 µM)
MIC Coagulase Negative Staphylococcus (GC 4548) ([2]; strain GC 4548): 2 µg/mL (≈ 1.37 µM)
MIC Coagulase Negative Staphylococcus (GC 4549) ([2]; strain GC 4549): 2 µg/mL (≈ 1.37 µM)
MIC Coagulase Negative Staphylococcus (GC 4551) ([2]; strain GC 4551): 4 µg/mL (≈ 2.74 µM)
MIC Coagulase Negative Staphylococcus (GC 6257) ([2]; strain GC 6257): 1 µg/mL (≈ 0.685 µM)
MIC Streptococcus agalactiae (GC 4564) [3]: 2 µg/mL (≈ 1.37 µM)
MIC Streptococcus pneumoniae (ATCC 6301) [3]: 1 µg/mL (≈ 0.685 µM)
MIC Streptococcus pneumoniae (GC 1894) [3]: 0.5 µg/mL (≈ 0.343 µM)
MIC Streptococcus pneumoniae (GC 4565) [3]: 1 µg/mL (≈ 0.685 µM)
MIC Streptococcus pyogenes (GC 4563) [3]: 1 µg/mL (≈ 0.685 µM)
MIC Streptococcus pneumoniae (ATCC 6301) ([3]; inoculum 5×10^5 CFU/mL, strain ATCC 6301): 1 µg/mL (≈ 0.685 µM)
MIC Streptococcus pneumoniae (GC 1894) ([3]; inoculum 5×10^5 CFU/mL, strain GC 1894): 0.5 µg/mL (≈ 0.343 µM)
MIC Streptococcus pyogenes (GC 4563) ([3]; inoculum 5×10^5 CFU/mL, strain GC 4563): 1 µg/mL (≈ 0.685 µM)
MIC Streptococcus agalactiae (GC 4564) ([3]; inoculum 5×10^5 CFU/mL, strain GC 4564): 2 µg/mL (≈ 1.37 µM)
MIC Streptococcus pneumoniae (GC 4565) ([3]; inoculum 5×10^5 CFU/mL, strain GC 4565): 1 µg/mL (≈ 0.685 µM)
MIC Enterococcus avium (GC 4558) [4]: 16 µg/mL (≈ 11 µM)
MIC Enterococcus faecalis (ATCC 29212) [4]: 16 µg/mL (≈ 11 µM)
MIC Enterococcus faecalis (GC 2242) [4]: 16 µg/mL (≈ 11 µM)
MIC Enterococcus faecalis (GC 2691) [4]: 16 µg/mL (≈ 11 µM)
MIC Enterococcus faecalis (GC 3059) [4]: 32 µg/mL (≈ 21.9 µM)
MIC Enterococcus faecalis (GC 4552) [4]: 32 µg/mL (≈ 21.9 µM)
MIC Enterococcus faecalis (GC 4553) [4]: 32 µg/mL (≈ 21.9 µM)
MIC Enterococcus faecalis (GC 4554) [4]: 32 µg/mL (≈ 21.9 µM)
MIC Enterococcus faecalis (GC 6189) [4]: 16 µg/mL (≈ 11 µM)
MIC Enterococcus faecium (GC 2243) [4]: 16 µg/mL (≈ 11 µM)
MIC Enterococcus faecium (GC 4556) [4]: 32 µg/mL (≈ 21.9 µM)
MIC Enterococcus faecium (GC 4557) [4]: 4 µg/mL (≈ 2.74 µM)
MIC Enterococcus faecalis (ATCC 29212) ([4]; strain ATCC 29212): 16 µg/mL (≈ 11 µM)
MIC Enterococcus faecium (GC 2243) ([4]; strain GC 2243): 16 µg/mL (≈ 11 µM)
MIC Enterococcus faecalis (GC 4552) ([4]; strain GC 4552): 32 µg/mL (≈ 21.9 µM)
MIC Enterococcus faecalis (GC 4553) ([4]; strain GC 4553): 32 µg/mL (≈ 21.9 µM)
MIC Enterococcus faecalis (GC 4554) ([4]; strain GC 4554): 32 µg/mL (≈ 21.9 µM)
MIC Enterococcus faecium (GC 4556) ([4]; strain GC 4556): 32 µg/mL (≈ 21.9 µM)
MIC Enterococcus faecium (GC 4557) ([4]; strain GC 4557): 4 µg/mL (≈ 2.74 µM)
MIC Enterococcus avium (GC 4558) ([4]; strain GC 4558): 16 µg/mL (≈ 11 µM)
MIC Enterococcus faecalis (GC 6189) ([4]; strain GC 6189): 16 µg/mL (≈ 11 µM)
MIC Enterococcus faecalis (GC 2242) ([4]; inoculum 5×10^5 CFU/mL, strain GC 2242): 16 µg/mL (≈ 11 µM)
MIC Enterococcus faecalis (GC 2691) ([4]; inoculum 5×10^5 CFU/mL, strain GC 2691): 16 µg/mL (≈ 11 µM)
MIC Enterococcus faecalis (GC 3059) ([4]; inoculum 5×10^5 CFU/mL, strain GC 3059): 32 µg/mL (≈ 21.9 µM)
